From US11382956B2, “Amylin analogues” (Zealand Pharma A/S, priority 2016, dated 2022)
Numbered stars: 1 amine (or outer) side, 2 acyl side, 3 side chain; on linkers, the order of the positions; unused ones are H or OH. Bridge positions count the residues as written; N and C are the ends. Square brackets hold non-standard residues; d marks the D form. Peptide text beside a SMILES is read from it. * marks the point of attachment. C20 diacid = O=C(O)CCCCCCCCCCCCCCCCCCC(=O)*; γGlu = O=C(O)[C@H](CCC(=O)[*:2])N[*:1]; Hyp = O=C(O)[C@@H]1C[C@@H](O)CN1; NMeI = CC[C@H](C)[C@H](NC)C(=O)O; Aad = N[C@@H](CCCC(=O)O)C(=O)O; Orn = NCCC[C@H](N)C(=O)O; Sar = CNCC(=O)O

Key:
[1] = target: T1, recombinant human calcitonin receptor (hCT-R) (Homo sapiens, UniProt P30988); test: hCT-R cAMP assay (AlphaScreen) in 1321N1 cells; type: cell-based; details: cAMP formation, 45 min stimulation
T1 construct: host or cells: human astrocytoma cell line 1321N1
T1 sequence (P30988 25-474): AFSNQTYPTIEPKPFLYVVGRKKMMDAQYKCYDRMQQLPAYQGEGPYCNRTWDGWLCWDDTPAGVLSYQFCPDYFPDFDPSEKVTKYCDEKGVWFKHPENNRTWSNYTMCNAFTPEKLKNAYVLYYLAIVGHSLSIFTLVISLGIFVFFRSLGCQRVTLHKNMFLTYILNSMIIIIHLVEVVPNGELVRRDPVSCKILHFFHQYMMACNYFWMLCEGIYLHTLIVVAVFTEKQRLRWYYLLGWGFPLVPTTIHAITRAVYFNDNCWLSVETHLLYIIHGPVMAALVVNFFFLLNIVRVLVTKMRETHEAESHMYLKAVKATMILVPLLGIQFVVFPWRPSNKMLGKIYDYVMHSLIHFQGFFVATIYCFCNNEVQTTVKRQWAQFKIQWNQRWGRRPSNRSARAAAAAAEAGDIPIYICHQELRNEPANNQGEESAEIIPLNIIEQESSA
Summary of the method: (§1)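 EC50 values come from curve fits over at least 7 peptide concentrations, with cAMP read by AlphaScreen competition after 1 h in the dark. Cells were 1321N1 lines carrying human calcitonin receptor, with RAMP3 co-expressed for AMY3, treated 45 min at room temperature in the presence of IBMX.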

[2] = Assessment of chemical stability in 40 mM buffers at 40° C. (RP-HPLC); type: physicochemical; details: 1 mg/mL; for % degradation after 72 h at 40° C. pH4 acetate: acetate buffer pH 4, 72 h; for % degradation after 72 h at 40° C. pH6 phosphate: phosphate buffer pH 6, 72 h; for % degradation after 72 h at 40° C. pH7 phosphate: phosphate buffer pH 7, 72 h
Summary of the method: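 Degradation is the main-peak area-% at each time point minus that at t=0, measured by C8 reversed-phase HPLC (TFA/acetonitrile/water gradient, 220 nm). Incubation at 40° C for 3 or 14 days, 1 mg/mL peptide in 40 mM buffer at pH 4, 6 or 7.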

[3] = Assessment of physical stability: fibril formation by Thioflavin T fluorescence; type: physicochemical; set-up: key: FND = fibrillation not detected; FD = fibrillation detected; details: 1 mg/mL peptide; for Fibrillation (in buffer) pH4 acetate: 50 mM acetate buffer pH 4.0, 96 hours at 40° C.; for Fibrillation (in buffer) pH7 histidine: 50 mM histidine buffer pH 7.0, 96 hours at 40° C.; for Fibrillation (in buffer) pH7 phosphate: 50 mM phosphate buffer pH 7.0, 96 hours at 40° C.
Description: Solutions containing (i) 1 mg/mL of test peptide, 40 μM ThT and 50 mM phosphate (Ph) buffer (pH 7.0), (ii) 1 mg/mL of test peptide, 40 μM ThT and 50 mM histidine (His) buffer (pH 7.0), and (iii) 1 mg/mL of test peptide, 40 μM ThT and 50 mM acetate (Ac) buffer (pH 4.0), were loaded in a 96-well black fluorescence plate (clear bottom) in triplicate. Data were collected at fixed intervals of 10 min, each preceded by 300 s of automixing (agitation), over a period of 96 hours at 40° C. Physical stability is determined by measuring the fluorescence intensity over time. A significant increase in intensity is rated as fibrillation detected (FD).

[4] = target: T2, recombinant human amylin 3 receptor (hAMYR3) (Homo sapiens, UniProt O60896+P30988); test: hAMYR3 cAMP assay (AlphaScreen) in 1321N1 cells; type: cell-based; details: cAMP formation, 45 min stimulation
T2 construct: host or cells: human astrocytoma cell line 1321N1
T2 sequence (P30988 25-474): T1 sequence (P30988 25-474)
T2 sequence (O60896 24-148 partner): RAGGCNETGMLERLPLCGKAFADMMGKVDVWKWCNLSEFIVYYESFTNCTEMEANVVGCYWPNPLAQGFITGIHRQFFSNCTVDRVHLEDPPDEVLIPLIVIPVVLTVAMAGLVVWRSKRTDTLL
Summary of the method: as §1

EC50 [1]	% degradation after 72 h at 40° C. pH4 acetate [2]	% degradation after 72 h at 40° C. pH6 phosphate [2]	% degradation after 72 h at 40° C. pH7 phosphate [2]	Fibrillation (in buffer) pH4 acetate [3]	Fibrillation (in buffer) pH7 histidine [3]	Fibrillation (in buffer) pH7 phosphate [3]	EC50 [4]	SMILES
0.068 nM	<1%	<1%	<1%	FND	FND	FND	0.024 nM	CC[C@H](C)[C@@H](C(=O)N[C@@H](CC(C)C)C(=O)N[C@@H](CO)C(=O)N[C@@H](CO)C(=O)N[C@H](C(=O)N[C@@H](CCC(=O)O)C(=O)N[C@H](C(=O)NCC(=O)N[C@@H](CO)C(=O)N[C@@H](CC(N)=O)C(=O)N[C@H](C(=O)N1C[C@H](O)C[C@H]1C(N)=O)[C@@H](C)O)C(C)C)[C@@H](C)O)N(C)C(=O)[C@H](C)NC(=O)CN(C)C(=O)[C@H](Cc1ccccc1)NC(=O)[C@H](CO)NC(=O)[C@H](CO)NC(=O)[C@H](CCCNC(=N)N)NC(=O)[C@H](CCC(N)=O)NC(=O)[C@H](CC(C)C)NC(=O)[C@H](Cc1ccccc1)NC(=O)[C@H](Cc1c[nH]cn1)NC(=O)[C@H](C)NC(=O)[C@H](CC(C)C)NC(=O)[C@H](CCCNC(=N)N)NC(=O)[C@H](CCC(=O)O)NC(=O)[C@@H](NC(=O)[C@H](C)NC(=O)[C@@H]1CCCCNC(=O)C[C@H](NC(=O)[C@H](CCC(=O)O)NC(=O)CC[C@H](NC(=O)CCCCCCCCCCCCCCCCCCC(=O)O)C(=O)O)C(=O)NCC(=O)N[C@@H]([C@@H](C)O)C(=O)N[C@@H](C)C(=O)N[C@@H]([C@@H](C)O)C(=O)N1)[C@@H](C)O [Compound 11, [19CD]-isoGlu-ED()GTATK()ATERLAHFLQRSSF-Gly(Me)-A-Ile(Me)-LSSTEVGSNT-Hyp-NH2] ({C20 diacid-γGlu}-EDGTATKATERLAHFLQRSSF[Sar]A[NMeI]LSSTEVGSNT[Hyp]-NH2; lactam 2-7)
0.019 nM	<1%	1%	<1%	FND	FND	FND	0.009 nM	CC[C@H](C)[C@@H](C(=O)N[C@@H](CC(C)C)C(=O)N[C@@H](CO)C(=O)N[C@@H](CO)C(=O)N[C@H](C(=O)N[C@@H](CCC(=O)O)C(=O)N[C@H](C(=O)NCC(=O)N[C@@H](CO)C(=O)N[C@@H](CC(N)=O)C(=O)N[C@H](C(=O)N1C[C@H](O)C[C@H]1C(N)=O)[C@@H](C)O)C(C)C)[C@@H](C)O)N(C)C(=O)[C@H](C)NC(=O)CN(C)C(=O)[C@H](Cc1ccccc1)NC(=O)[C@H](CC(N)=O)NC(=O)[C@H](C)NC(=O)[C@H](CCCNC(=N)N)NC(=O)[C@H](CCC(N)=O)NC(=O)[C@H](CC(C)C)NC(=O)[C@H](Cc1ccccc1)NC(=O)[C@H](CCCC(=O)O)NC(=O)[C@H](C)NC(=O)[C@H](CC(C)C)NC(=O)[C@H](CCCNC(=N)N)NC(=O)[C@H](CCC(=O)O)NC(=O)[C@@H](NC(=O)[C@H](C)NC(=O)[C@@H]1CCCCNC(=O)C[C@H](NC(=O)[C@H](CCCNC(=N)N)NC(=O)CC[C@H](NC(=O)CCCCCCCCCCCCCCCCCCC(=O)O)C(=O)O)C(=O)NCC(=O)N[C@@H]([C@@H](C)O)C(=O)N[C@@H](C)C(=O)N[C@@H]([C@@H](C)O)C(=O)N1)[C@@H](C)O [Compound 33, [19CD]-isoGlu-RD()GTATK()ATERLA-Aad-FLQRANF-Gly(Me)-A-Ile(Me)-LSSTEVGSNT-Hyp-NH2] ({C20 diacid-γGlu}-RDGTATKATERLA[Aad]FLQRANF[Sar]A[NMeI]LSSTEVGSNT[Hyp]-NH2; lactam 2-7)
0.521 nM	<1%	<1%	1.7%	FND	FND	FND	0.325 nM	CC[C@H](C)[C@@H](C(=O)N[C@@H](CC(C)C)C(=O)N[C@@H](CO)C(=O)N[C@@H](CO)C(=O)N[C@H](C(=O)N[C@@H](CCC(=O)O)C(=O)N[C@H](C(=O)NCC(=O)N[C@@H](CO)C(=O)N[C@@H](CC(N)=O)C(=O)N[C@H](C(=O)N1C[C@H](O)C[C@H]1C(N)=O)[C@@H](C)O)C(C)C)[C@@H](C)O)N(C)C(=O)[C@H](C)NC(=O)CN(C)C(=O)[C@H](Cc1ccccc1)NC(=O)[C@@H](NC(=O)CNC(=O)[C@H](CCCNC(=N)N)NC(=O)[C@H](CCC(N)=O)NC(=O)[C@H](CC(C)C)NC(=O)[C@H](Cc1ccccc1)NC(=O)[C@H](CCCC(=O)O)NC(=O)[C@H](C)NC(=O)[C@H](CC(C)C)NC(=O)[C@H](CCCNC(=N)N)NC(=O)[C@H](CCC(=O)O)NC(=O)[C@@H](NC(=O)[C@H](C)NC(=O)[C@@H]1CCCNC(=O)C[C@H](NC(=O)[C@H](CCCNC(=N)N)NC(=O)CC[C@H](NC(=O)CCCCCCCCCCCCCCCCCCC(=O)O)C(=O)O)C(=O)NCC(=O)N[C@@H]([C@@H](C)O)C(=O)N[C@@H](C)C(=O)N[C@@H]([C@@H](C)O)C(=O)N1)[C@@H](C)O)[C@@H](C)O [Compound 27, [19CD]-isoGlu-RD()GTAT-Orn()-ATERLA-Aad-FLQRGTF-Gly(Me)-A-Ile(Me)-LSSTEVGSNT-Hyp-NH2] ({C20 diacid-γGlu}-RDGTAT[Orn]ATERLA[Aad]FLQRGTF[Sar]A[NMeI]LSSTEVGSNT[Hyp]-NH2; lactam 2-7)
0.206 nM	<1%	<1%	2.8%	FND	FND	FND	0.063 nM	CC[C@H](C)[C@@H](C(=O)N1CCC[C@H]1C(=O)N[C@@H](CO)C(=O)N[C@@H](CO)C(=O)N[C@H](C(=O)N[C@@H](CCC(=O)O)C(=O)N[C@H](C(=O)NCC(=O)N[C@@H](CO)C(=O)N[C@@H](CC(N)=O)C(=O)N[C@H](C(=O)N1C[C@H](O)C[C@H]1C(N)=O)[C@@H](C)O)C(C)C)[C@@H](C)O)N(C)C(=O)[C@H](C)NC(=O)CN(C)C(=O)[C@H](Cc1ccccc1)NC(=O)[C@H](CO)NC(=O)[C@H](CO)NC(=O)[C@H](CCCNC(=N)N)NC(=O)[C@H](CCC(N)=O)NC(=O)[C@H](CC(C)C)NC(=O)[C@H](Cc1ccccc1)NC(=O)[C@H](CCCC(=O)O)NC(=O)[C@H](C)NC(=O)[C@H](CC(C)C)NC(=O)[C@H](CCCNC(=N)N)NC(=O)[C@H](CCC(=O)O)NC(=O)[C@@H](NC(=O)[C@H](C)NC(=O)[C@@H]1CCCCNC(=O)C[C@H](NC(=O)[C@H](CCCNC(=N)N)NC(=O)CC[C@H](NC(=O)CCCCCCCCCCCCCCCCCCC(=O)O)C(=O)O)C(=O)NCC(=O)N[C@@H]([C@@H](C)O)C(=O)N[C@@H](C)C(=O)N[C@@H]([C@@H](C)O)C(=O)N1)[C@@H](C)O [Compound 34, [19CD]-isoGlu-RD()GTATK()ATERLA-Aad-FLQRSSF-Gly(Me)-A-Ile(Me)-PSSTEVGSNT-Hyp-NH2] ({C20 diacid-γGlu}-RDGTATKATERLA[Aad]FLQRSSF[Sar]A[NMeI]PSSTEVGSNT[Hyp]-NH2; lactam 2-7)
